Read-outs that look alike come from different tables or passages of the source.
Key:
Ezrin [1] = biological target: T1, Ezrin (Homo sapiens, UniProt P15311); assay: CETSA dose response at […] °C in MKN28 cells (EC50 […] in A375), Tm shift […] to […] °C; DARTS with MS and Western blot; type: cell-based
T1 construct: gene EZR

MKN28 = assay: cells; design: species or system C2C12, A375; PrestoBlue cell proliferation/viability assay, absorbance 570 nm, 24 h; details: Homo sapiens, MKN-28, 24 h
A375 = assay: cells; design: species or system C2C12, MKN28; PrestoBlue cell proliferation/viability assay, absorbance 570 nm, 24 h; details: Homo sapiens, A-375, 24 h
C2C12 = assay: cells; design: species or system MKN28, A375; PrestoBlue cell proliferation/viability assay, absorbance 570 nm, 24 h; details: Mus musculus, 24 h, non-cancer myoblasts
Experimental: Cell proliferation rate was evaluated measuring mitochondrial metabolic activity through the use of PrestoBlueTM (PB) (Cat. N. A13262, Invitrogen), employed according to the manufacturer’s protocol. Cells were plated onto 96-well plates (8000 cells/well), treated with increasing concentrations (10–60 μM) of Ori or Iru for 24 h and then incubated with PB reagent at 10% final concentration for 1 h. The absorbance was monitored at 570 nm with a reference wavelength set a 600 nm and using a microplate reader (Multiskan Go, Thermo Scientific, Waltham, MA, USA). Cell viability was expressed as a percentage relative to the un-treated cells cultured in DMEM with 0.1% DMSO and set to 100%. The dose compounds reducing cell number by 50% (IC50 values) were calculated using the respective dose–response curves according to the manufacturer’s protocol. IC50 values were used for the subsequent proteomic experiments. Instead, the non-toxic concentration of 10 μM was used for the functional assays. […] To that aim, we first evaluated the cytotoxic potential of both diterpenes on the C2C12 cells; therefore, we exposed for 24 h C2C12 myoblasts to increasing concentrations (10–60 μM) of Ori or of Iru, and, subsequently, we performed cell proliferation assay (Figure 1).

Ezrin [2] = biological target: T1, Ezrin; assay: CETSA dose response at […] °C in A375 cells (EC50 […] in MKN28), Tm shift […] to […] °C; DARTS with MS and Western blot; type: cell-based

T1 sequence (P15311 whole entry): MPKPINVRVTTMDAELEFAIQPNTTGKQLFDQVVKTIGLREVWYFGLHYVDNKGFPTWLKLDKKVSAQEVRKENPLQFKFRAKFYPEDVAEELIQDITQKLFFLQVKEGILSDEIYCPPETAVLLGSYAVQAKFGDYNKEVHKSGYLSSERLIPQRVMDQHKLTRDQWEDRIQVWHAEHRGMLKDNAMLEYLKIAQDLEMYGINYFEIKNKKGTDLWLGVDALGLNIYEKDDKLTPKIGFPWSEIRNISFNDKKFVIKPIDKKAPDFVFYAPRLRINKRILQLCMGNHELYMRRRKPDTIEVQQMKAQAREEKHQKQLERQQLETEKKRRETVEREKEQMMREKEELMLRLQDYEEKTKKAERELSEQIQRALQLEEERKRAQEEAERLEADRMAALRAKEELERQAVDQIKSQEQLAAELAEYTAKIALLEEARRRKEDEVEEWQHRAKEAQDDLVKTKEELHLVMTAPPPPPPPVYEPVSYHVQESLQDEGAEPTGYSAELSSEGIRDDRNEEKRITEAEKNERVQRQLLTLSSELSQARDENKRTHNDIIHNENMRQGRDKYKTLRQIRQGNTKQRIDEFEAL

| SMILES | EC50 (Ezrin [1]) [µM] | IC50 (MKN28; read-out: Iru IC50) [µM] | IC50 (A375; read-out: Iru IC50) [µM] | IC50 (C2C12; read-out: Iru IC50) [µM] | EC50 (Ezrin [2]) [µM] | IC50 (MKN28; read-out: Ori IC50) [µM] | IC50 (A375; read-out: Ori IC50) [µM] | IC50 (C2C12; read-out: Ori IC50) [µM] |
| --- | --- | --- | --- | --- | --- | --- | --- | --- |
| C=C1C(=O)[C@@]23C(CC[C@@H]1[C@H]2O)[C@]12CCCC(C)(C)C1[C@H](O)[C@@]3(O)O[C@H]2O (some centres unmarked) [Iru] | 13 | 25 | 35 | 50 |  |  |  |  |
| C=C1C(=O)[C@]23[C@H](O)[C@H]1CC[C@H]2[C@@]12CO[C@]3(O)[C@@H](O)[C@@H]1C(C)(C)CC[C@@H]2O [Ori, (1S,2S,5S,8R,9S,10S,11R,15S,18R)-9,10,15,18-tetrahydroxy-12,12-dimethyl-6-methylidene-17-oxapentacyclo (7.6.2.15,8.01,11.02,8) octadecan-7-one] |  |  |  |  | 19 | 20 | 25 | 30 |
